Assay results reported in patent US20120059005A1, “COMBINATION OF (A) A PHOSPHOINOSITIDE 3-KINASE INHIBITOR AND (B) AN ANTIDIABETIC COMPOUND FOR USE IN THE TREATMENT OF PROLIFERATIVE DISEASES” (NOVARTIS AG, priority 2009, published 2012).
Read-outs that look alike come from different tables or passages of the source.

Legend:
[1] = Method: 0.2 mL of A549 cell suspension (1×10^7 cells) is injected subcutaneously in the right flank of 9-week old female flu/flu (nude) mice (Harlan Laboratories, Indianapolis, Ind.) having a body weight (BW) range of 19.9-27.3 g on Day 1 of the study, Tumors are callipered in two dimensions to monitor their growth as their mean volume approached 150-220 mm^3, Twenty-two days after implantation, the mice are sorted into 11 groups of eight or nine mice having individual tumor sizes of 108-221 mm^3. Tumor volume in mm^3 is determined using the formula [(width)^2×(length)][…], where width width of the tumor in mm and length=length of the tumor in mm. Tumor weight can be estimated with the assumption that 1 mg is equivalent to 1 mm^3 of tumor volume.
(§1) The 11 groups of nude mice are treated as follows. One group of nine mice serves as Controls (C or Control) for all analyses and is administered intraperitoneally (i,p,) 50 mM sodium acetate at pH 4 (Vehicle 1) and then administered by oral gavage (p.o.) a composition comprising 10% N-methylpyrrolidone: 90% polyethylene glycol 300 (PEG300) (Vehicle 2). […] Metformin is dissolved in 50 mM sodium acetate at pH 4 for dosing,
(§2) Compound A and Compound C are stored at −20° C. protected from light. Stock solutions (10X) in 100% N-methylpyrrolidone (NMP) are prepared every five days, aliquotted, and stored in the dark at room temperature. On each treatment day, stock solution aliquots are diluted with polyethylene glycol (PEG300) to provide the formulated drug (Compound A or Compound C) in 10% NMP: 90% PEG300. Dosing solutions are protected from light, and the formulated drug is administered within 1 hour after preparation.
For combination therapies, Compound A or Compound C are administered by oral gavage (p.o.) within 30 minutes after the intraperitoneal (i.p.) administration of metformin , except on Day 20 when Compound A or Compound C is given immediately after metformin.
(§3) Paclitaxel (Natural Pharmaceuticals, Inc., Beverly, Mass., USA) is administered by bolus tail-vein injections (i v) once daily on alternate days for five doses. Paclitaxel is dissolved in 50% ethanol and 50% Cremophor® EL to prepare a 10X stock solution stored at room temperature. On each day of dosing, an aliquot of the paclitaxel stock solution is diluted with 5% dextrose in water to yield a dosing solution containing 5% ethanol and 5% Cremophor®EL.
In all groups, the dosing volume of 10 mL/kg (0.2 mL/ 20 g mouse) is scaled to the weight of each animal as determined on the day of dosing, except on weekends when the previous BW is carried forward.

[2] = remark: listed apart in the source
Method: 0.2 mL of H460 tumor cell suspension (1×10^7 cells) is injected subcutaneously in the right flank of 9-week old female nu/nu (nude) mice (Harlan Laboratories, Indianapolis, Ind.) having a body weight (BW) range of 18.1-26.9 g on Day 1 of the study. Tumors are monitored twice weekly and then daily as their mean volume approaches 100-150 mm^3. Ten days after implantation, the mice are sorted into 11 groups of eight mice having individual tumor sizes of 75-196 mm^3 and a group mean tumor size of 119-122 mm^3. Tumor volume in mm^3 is determined using the formula [(width)^2×(length)]/2, where width width of the tumor in mm and length length of the tumor in mm. Tumor weight can be estimated with the assumption that 1 mg is equivalent to 1 mm^3 of tumor volume.
as §1, with “eight” for “nine”, “(i.p.)” for “(i,p,)”, “N-methylpyrrolidone” for “N-methylpyrrolidone:”, “dosing.” for “dosing,”
as §2, with “A is stored at −20° C.” for “A and”, “C is” for “C are”, “solutions (10×)” for “solutions (10X)”, “100% N-rnethylpyrrolidone” for “100% N-methylpyrrolidone”
For combination therapies, Compound A or Compound C are administered by oral gavage (p.o.) within 30 minutes after the intraperitoneal (i.p.) administration of metformin, except on Day 20 when Compound A or Compound C is given immediately after metformin.
as §3, with “(i.v.)” for “(i v)”, “Crernophor®” for “Cremophor®”, “10×” for “10X”, “Cremophor® EL.” for “Cremophor®EL.”
In all groups, the dosing volume of 10 mL/kg (0.2 mL/20 g mouse) is scaled to the weight of each animal as determined on the day of dosing, except on weekends when the previous BW is carried fontvard.

[3] = female, nu/nu (nude), mouse, in vivo, po, 41.1 mg/kg
[4] = female, nu/nu (nude), mouse, in vivo, po, 68.5 mg/kg
[5] = Paclitaxel 30 mg/kg i.v., 1x on alternate days for 5 doses

SMILES: Cn1c(=O)n(-c2ccc(C(C)(C)C#N)cc2)c2c3cc(-c4cnc5ccccc5c4)ccc3ncc21 [Compound A, 2-Methyl-2-[4-(3-methyl-2-oxo-8-quinolin-3-yl-2,3-dihydro-imidazo[4,5-c]quinolin-1-yl)-phenyl]-propionitrile]
- Dead/Total [1, 3]: 0/8
- Dead/Total [1, 4]: 0/9
- Mean Body Weight Change ([1]; mouse, in vivo, po, 68.5 mg/kg): −0.8%, Day 4
- Dead/Total [2, 3]: 0/8
- Dead/Total [2, 4]: 0/8

SMILES: CN(C)C(=N)N=C(N)N [Metformin, dimethyldiguanide, reference compound]
- Dead/Total ([1]; female, nu/nu (nude), mouse, in vivo): 1/9
- Dead/Total ([2]; Metformin 192.3 mg/kg i.p., 1x daily): 0/8

SMILES: CC(=O)O[C@H]1C(=O)[C@@]2(C)[C@H]([C@H](OC(=O)c3ccccc3)[C@]3(O)C[C@H](OC(=O)[C@H](O)[C@@H](NC(=O)c4ccccc4)c4ccccc4)C(C)=C1C3(C)C)[C@]1(OC(C)=O)CO[C@@H]1C[C@@H]2O [Paclitaxel, reference compound]
- Dead/Total [1, 5]: 0/8
- Dead/Total [2, 5]: 0/8
